From PubChem BioAssay (NCI) come the findings set out here.

Among the test systems are NCI-H460 lung; EKVX NSCLC; UACC-257 melanoma; KM12 colon; 786-0 renal; SK-OV-3 ovarian; HS 578T breast; SN12C renal; HCT-15 colon; RXF 393 renal.
Common to all, as to experiment: DTP human tumour cell line panel, 48 h

“And” between values parts separate entries of the source, which are not always exact repeats. Equal entries are not always repeated.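 Method: 48-hour compound exposure of cells in 96-well plates, five concentrations, linear interpolation of endpoints. GI50: concentration for 50% inhibition of growth. TGI: concentration producing complete growth inhibition.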 Some results are limits rather than exact numbers.

For orientation: GI50 means the concentration at which growth is held to half of that of the control. What is called TGI is the concentration giving total growth inhibition. The low end stands for greater sensitivity of the cells, the high end for lower sensitivity of the cells. On to `Cn1c2c(c3ccc(Cl)c(Cl)c31)C(C#N)C1(CCNCC1)NC2=O` (stereo not given), for which the GI50 was 1.71 µM in the test on NCI-H460 lung; 2.47 µM in the test on EKVX NSCLC; 1.75 µM in the test on UACC-257 melanoma; 1.6 µM in the test on KM12 colon; 1.66 µM in the test on 786-0 renal; 2.73 µM with SK-OV-3 ovarian. Moreover, the GI50 in the test on HS 578T breast was 1.13 µM; in the test with SN12C renal, 2.51 µM; in the test with HCT-15 colon, 2.4 µM; in the test with RXF 393 renal it was 1.52 µM. Besides, the TGI was 3.79 µM in the test on NCI-H460 lung; 9.84 µM with EKVX NSCLC; 3.69 µM with UACC-257 melanoma; 3.03 µM with KM12 colon; 3.36 µM with 786-0 renal; 8.97 µM in the test with SK-OV-3 ovarian. Further, the TGI with HS 578T breast is 3.61 µM; in the test with SN12C renal, 12.6 µM; in the test with HCT-15 colon, 7.88 µM; in the test on RXF 393 renal it was 5.79 µM.

Take `Cc1ccc(-c2csc(NC(=O)CN3CCN(c4cc5c(cc4F)c(=O)c(C(=O)O)cn5C4CC4)CC3)n2)cc1`: the GI50 was 0.368 µM in the test on NCI-H460 lung; 1.53 µM in the test with EKVX NSCLC; 1.91 µM in the test with UACC-257 melanoma; 0.508 µM in the test with KM12 colon; 0.5 µM in the test on 786-0 renal; 1.3 µM with SK-OV-3 ovarian. The GI50 with HS 578T breast is 0.749 µM; with SN12C renal, 0.413 µM; in the test with HCT-15 colon, 0.441 µM; in the test on RXF 393 renal, 0.633 µM. In addition, the TGI with NCI-H460 lung was 17.1 µM; in the test with EKVX NSCLC it was 23.9 µM; in the test on UACC-257 melanoma it was 6.18 µM; in the test on KM12 colon, above 100 µM; with 786-0 renal, 15.2 µM; with SK-OV-3 ovarian, 5.52 µM. Also, the TGI with HS 578T breast was 31.7 µM; in the test with SN12C renal, 15.4 µM; with HCT-15 colon it was above 100 µM; in the test with RXF 393 renal it was 17.8 µM.

Consider `COc1ccccc1/C=C/C(=O)c1ccccc1`, for which the GI50 is 13.7 µM in the test with NCI-H460 lung; 11 µM in the test on EKVX NSCLC; 13.8 µM in the test with UACC-257 melanoma; 4.04 µM with KM12 colon; 18.3 µM with 786-0 renal; 33.3 µM in the test with SK-OV-3 ovarian. The GI50 in the test with HS 578T breast is 12.1 µM; in the test on SN12C renal, 7.55 µM; in the test on HCT-15 colon, 3.47 µM; with RXF 393 renal, 5.94 µM. For the same compound, the TGI was 31.9 µM in the test on NCI-H460 lung; 28.5 µM with EKVX NSCLC; 27.4 µM in the test with UACC-257 melanoma; 14.3 µM in the test on KM12 colon; 32.8 µM in the test with 786-0 renal; above 100 µM in the test on SK-OV-3 ovarian. Moreover, the TGI was above 25.5 µM in the test with HS 578T breast, 22.9 µM in the test on SN12C renal, 14.7 µM in the test on HCT-15 colon and 16.1 µM in the test on RXF 393 renal.

As to `COc1cc2ncnc(Nc3ccc(F)c(Cl)c3)c2cc1NC(=O)/C=C/CN1CCCCC1`, the GI50 with NCI-H460 lung is 2.18 µM and 2.4 µM; in the test on EKVX NSCLC it was 0.00274 µM; with UACC-257 melanoma, 1.66 µM and 1.79 µM; with KM12 colon, 2.17 µM and 2.78 µM; in the test on 786-0 renal, 1.5 µM and 1.29 µM; with SK-OV-3 ovarian it was 0.0171 µM and 0.00478 µM. Besides, the GI50 in the test with HS 578T breast is 2.01 µM and 0.921 µM; with SN12C renal, 0.429 µM and 0.389 µM; in the test with HCT-15 colon, 1.07 µM and 1.12 µM; in the test on RXF 393 renal, 0.919 µM and 0.89 µM. In addition, the TGI is 6.22 µM and 7 µM in the test on NCI-H460 lung; above 10 µM in the test on EKVX NSCLC; 3.39 µM and 3.51 µM in the test with UACC-257 melanoma; 4.88 µM and > 9.06 µM in the test with KM12 colon; 2.98 µM and 2.75 µM in the test with 786-0 renal; 2.3 µM and 2.23 µM in the test with SK-OV-3 ovarian. The TGI is 19.6 µM and 5.6 µM with HS 578T breast; 3.35 µM and 2.3 µM with SN12C renal; 4.6 µM and 3.81 µM in the test with HCT-15 colon; 2.55 µM and 2.94 µM in the test with RXF 393 renal.

On to `NC(N)=NCCC1OC(=O)C2=C1c1c(O)ccc3nccc(c13)O2` (stereo not given), for which the GI50 was above 100 µM in the test on NCI-H460 lung; above 100 µM with EKVX NSCLC; 1.73 µM in the test on UACC-257 melanoma; above 100 µM with KM12 colon; above 100 µM in the test on 786-0 renal; above 100 µM in the test on SK-OV-3 ovarian. Besides, the GI50 in the test with HS 578T breast, with SN12C renal, in the test on HCT-15 colon and with RXF 393 renal was above 100 µM in each case. For the same compound, the TGI in the test on NCI-H460 lung, with EKVX NSCLC, with UACC-257 melanoma, with KM12 colon, in the test with 786-0 renal and in the test on SK-OV-3 ovarian was above 100 µM each time. Moreover, the TGI in the test on HS 578T breast, in the test on SN12C renal, in the test with HCT-15 colon and with RXF 393 renal was above 100 µM throughout.

For `CC(CCC(=O)O)C(=O)O` (stereo not given), the TGI with NCI-H460 lung, in the test with EKVX NSCLC, in the test on UACC-257 melanoma, in the test with KM12 colon, in the test with 786-0 renal and in the test on SK-OV-3 ovarian was above 100 µM throughout. In addition, the TGI with HS 578T breast, in the test with SN12C renal, with HCT-15 colon and in the test with RXF 393 renal was above 100 µM each time.

`CN1C(=O)N(C)C2C1NN=c1s/c(=C\c3ccc(F)cc3)c(=O)n12` (stereo not given): the GI50 with NCI-H460 lung is 2.77 µM; in the test on EKVX NSCLC, 4.02 µM; in the test with UACC-257 melanoma, 3.02 µM; in the test with KM12 colon, 1.65 µM; in the test on 786-0 renal, 7.55 µM; with SK-OV-3 ovarian, 3.57 µM. Also, the GI50 in the test with HS 578T breast was 2.08 µM; in the test with SN12C renal, 6.97 µM; in the test on HCT-15 colon, 0.915 µM; with RXF 393 renal, 0.785 µM. For the same compound, the TGI with NCI-H460 lung, in the test with EKVX NSCLC, with UACC-257 melanoma, in the test with KM12 colon, in the test on 786-0 renal and in the test on SK-OV-3 ovarian was above 100 µM in each case. For the same compound, the TGI with HS 578T breast was 7.31 µM; in the test on SN12C renal it was above 100 µM; in the test with HCT-15 colon it was above 100 µM; in the test on RXF 393 renal, 6 µM.

In the case of `Cc1[nH]nc(C(=O)n2nc(N)c3ccccc32)c1[N+](=O)[O-]`, the GI50 in the test with NCI-H460 lung, with EKVX NSCLC, with UACC-257 melanoma, in the test with KM12 colon, in the test with 786-0 renal and with SK-OV-3 ovarian was above 100 µM each time. Moreover, the GI50 in the test with HS 578T breast was above 100 µM; in the test with SN12C renal it was above 100 µM; in the test on HCT-15 colon it was above 63.5 µM; in the test on RXF 393 renal it was above 100 µM. Further, the TGI with NCI-H460 lung, with EKVX NSCLC, in the test with UACC-257 melanoma, with KM12 colon, in the test with 786-0 renal and with SK-OV-3 ovarian was above 100 µM each time. Further, the TGI in the test with HS 578T breast, in the test with SN12C renal, in the test on HCT-15 colon and with RXF 393 renal was above 100 µM in each case.
